Test results from patent publication US20040122109A1, “Preparation for hair and/or scalp” (priority 2001, published 2004).

Experiments:
C3H mice = assay: Hair restoration test: hair growth score on the shaved back of C3H mice; type: in vivo, mouse; details: for Hair growth score of C3H mouse, before application: 7-week old male C3H mice in telogen, shaved back, baseline, score 1-5 (1 = skin pink, 5 = hair growth in 60% or more); for Hair growth score of C3H mouse, before application / Hair growth score of C3H mouse, after application: n = 7, Average ± S.D.; for Hair growth score of C3H mouse, after application: 10% in PEG1000 applied to shaved portion once a day, total of 14 times, score 1-5 (higher = more hair growth); for Hair restoration activity (in words): C3H mice, 10% in PEG1000, 14 applications
Description: The back of each of 7-week old male C3H mice in the telogen period of the hair cycle was carefully shaved, and then groups of seven mice each without wounds at the backs were subjected to a test. In a control group, only polyethylene glycol 1000 (PEG1000) used as a base was applied to each mouse, while in an evaluation group, 10% oxidized coenzyme Q10 or 10% reduced coenzyme Q10 (reduced coenzyme Q10:oxidized coenzyme Q10=95:5) was applied to the shaved portion once a day (total of 14 times). After the application, the back of each mouse was evaluated based on the scores below to evaluate the hair restoration activity of a compound.
2; Less than 30% of the shaved portion was discolored to gray.

hairless rats = assay: Prevention of hair removal: hair removal score of hairless rats; type: in vivo, rat; details: for Hair removal score of hairless rat, before application: 4-week old male hairless rats in pilose period, baseline, score 1-5 (1 = no hair removal, 5 = hair removal in 60% or more); for Hair removal score of hairless rat, before application / Hair removal score of hairless rat, 71 days after: n = 5, Average ± S.D.; for Hair removal score of hairless rat, 71 days after: 10% in PEG1000 applied to back once a day for 12 days, 71st day after application was terminated, score 1-5 (lower = less hair removal); for Activity of preventing hair removal (in words): hairless rats, 10% in PEG1000, once a day for 12 days
Description: 4-week old male hairless rats in the pilose period were used for evaluating the activity of preventing hair removal. The same samples as those used in Example 1 were used. In each group of five hairless rats, each of the samples was applied to the back of each rat once a day for 12 days, and then a hair removal state was observed after the application was stopped. The hair removal state was observed based on the following scores.
1; No hair removal was observed.
2; Hair became short in 30% or less of the applied region.

## COC1=C(OC)C(=O)C(C/C=C(\C)CC/C=C(\C)CC/C=C(\C)CC/C=C(\C)CC/C=C(\C)CC/C=C(\C)CC/C=C(\C)CC/C=C(\C)CC/C=C(\C)CCC=C(C)C)=C(C)C1=O [Oxidized coenzyme Q10, oxidized coenzyme Q10]
C3H mice
  Hair growth score of C3H mouse, before application: 1.0 ± 0.00
  Hair growth score of C3H mouse, after application: 2.7 ± 0.35
  Hair restoration activity (in words): a hair restoration activity was observed
Hairless rats
  Hair removal score of hairless rat, before application: 1.0 ± 0.00
  Hair removal score of hairless rat, 71 days after: 3.6 ± 0.24
  Activity of preventing hair removal (in words): has the activity of preventing hair removal

## COc1c(O)c(C)c(C/C=C(\C)CC/C=C(\C)CC/C=C(\C)CC/C=C(\C)CC/C=C(\C)CC/C=C(\C)CC/C=C(\C)CC/C=C(\C)CC/C=C(\C)CCC=C(C)C)c(O)c1OC [Reduced coenzyme Q10, reduced coenzyme Q10]
C3H mice
  Hair growth score of C3H mouse, before application: 1.0 ± 0.00
  Hair growth score of C3H mouse, after application: 3.2 ± 0.64
  Hair restoration activity (in words): a higher hair restoration activity was observed
Hairless rats
  Hair removal score of hairless rat, before application: 1.0 ± 0.00
  Hair removal score of hairless rat, 71 days after: 3.0 ± 0.71
  Activity of preventing hair removal (in words): has the activity of preventing hair removal
